For one experiment, the system named is Micrococcus luteus. As to the kind of experiment: Antibacterial activity against Micrococcus luteus KCTC 1915. Format: functional.
For the next experiment, the system named is Staphylococcus aureus. As to the kind of experiment: Antibacterial activity against Staphylococcus aureus KCTC 1927. Format: functional.
For the next experiment, the system named is Bacillus subtilis. Briefly: Antibacterial activity against Bacillus subtilis KCTC 1021. It counts as functional.
The next experiment deals with Salmonella typhimurium. As to the kind of experiment: Antibacterial activity against Salmonella typhimurium KCTC 2515. It counts as functional, Salmonella enterica subsp. enterica serovar Typhimurium. The conditions noted are these: Salmonella enterica.
The next experiment deals with Klebsiella pneumoniae. Briefly: Antibacterial activity against Klebsiella pneumoniae KCTC 2690. Format: functional.
In another experiment the test system is Escherichia coli. As to the kind of experiment: Antibacterial activity against Escherichia coli KCTC 2441. Format: functional.
For the next experiment, the system named is RAW264.7. Briefly: Antiinflammatory activity in mouse RAW264.7 cells. Format: functional, cell-based.

Among the data in ChEMBL document CHEMBL5584286, “Structure Determination of 1,3-Dioxolane-Containing Lipids from the Marine Sponge Leucetta sp. Using Chiral 1H NMR Analysis of Model Systems” (2024) are MIC and Activity values, retold here.

Structures are written as SMILES. Active and inactive are the calls of the source.

The MIC is the smallest concentration in the dilution series that meets the test's criterion for growth inhibition. In the case of `CCCCCCCCC/C=C\C/C=C\CCC[C@H](C)[C@H]1OC[C@H](CO)O1`, the MIC with Micrococcus luteus, with Staphylococcus aureus, with Bacillus subtilis, in the experiment with Salmonella typhimurium, with Klebsiella pneumoniae and with Escherichia coli was more than 128 µg/mL throughout. Moreover, the outcome in the experiment on RAW264.7 was inactive.
Regarding `CCCCCCCCCCC/C=C\CCC[C@H](C)[C@H]1OC[C@H](CO)O1`, the MIC in the experiment on Micrococcus luteus, with Staphylococcus aureus, against Bacillus subtilis, with Salmonella typhimurium, with Klebsiella pneumoniae and with Escherichia coli was more than 128 µg/mL each time. Besides, the result in the experiment on RAW264.7 was inactive.
On to `CCCCCCCCCCC/C=C\C=C\C(O)CC[C@H](C)[C@H]1OC[C@H](CO)O1` (stereo not given in full), for which the MIC against Micrococcus luteus, against Staphylococcus aureus, against Bacillus subtilis, with Salmonella typhimurium, against Klebsiella pneumoniae and with Escherichia coli was more than 128 µg/mL each time. In the experiment on RAW264.7, the outcome was inactive.
Turning to `CCCCCCCCCC/C=C\C/C=C\CCC[C@H](C)[C@H]1OC[C@H](CO)O1`, the MIC against Micrococcus luteus, in the experiment with Staphylococcus aureus, against Bacillus subtilis, in the experiment on Salmonella typhimurium, against Klebsiella pneumoniae and in the experiment on Escherichia coli was more than 128 µg/mL each time. Further, the result in the experiment with RAW264.7 was inactive.
`CCCCCCCC/C=C\C/C=C\CCC[C@H](C)[C@H]1OC[C@H](CO)O1`: the MIC against Micrococcus luteus, in the experiment on Staphylococcus aureus, against Bacillus subtilis, with Salmonella typhimurium, against Klebsiella pneumoniae and with Escherichia coli was more than 128 µg/mL throughout. For the same compound, the result with RAW264.7 was inactive.
